# Patent publication US20020137929A1, “1 - (3-heterocyclylphenyl) isothiourea, -isourea, -guanidine and -amidine herbicidal agents” (Intellectual Property Department, BASF Aktiengesellschaft, priority 1998, published 2002)
# How the values were obtained:
# [1] = system: CYPIR (Rice Flatsedge); assay: Preemergence weed control under flooded paddy conditions; type: in vivo, Cyperus iria; conditions: rated 3-4 weeks after treatment
# Outline: (§1)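 Herbicidal effect is scored visually on a 0-9 scale against an untreated control, three to four weeks after compounds are pipetted into the flood water (1.5 to 3 cm deep) over seeds planted in silt loam at 0.5 cm depth. Rates: about 0.0313 to 0.500 kg/ha.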
# [2] = system: CYPSE (Flatsedge); assay: as above; type: in vivo, Cyperus serotinus; conditions: rated 3-4 weeks after treatment
# Outline: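 Silt loam, seeds in top 0.5 cm; flood held 1.5-3 cm; test cpd as acetone/water 50/50 into flood water, ~0.0313-0.500 kg/ha a.i.; greenhouse 3-4 wk; visual 0-9 score vs control.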
# [3] = system: ORYSAT (Rice, Tebonnet); assay: Preemergence herbicidal evaluation; type: in vivo, Oryza sativa, (L.) Tebonnet; conditions: rated 4-5 weeks after treatment
# Outline: (§2)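 Sown cups got a single aqueous acetone spray of test compound (roughly 0.0156–0.500 kg/ha) before seedlings emerged. Evaluation, 4–5 weeks on, used a 0–9 visual scale covering plant stand, vigor, size, malformation, chlorosis and general appearance compared with controls.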
# [4] = system: ECHORC (Watergrass (Calif.)); assay: Postemergence weed control under flooded paddy conditions; type: in vivo, Echinochloa oryzoides; conditions: postemergence weeds
# Outline: (§3)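 Herbicidal effect is judged by eye on a 0–9 scale versus control, 3–4 weeks after dosing. Dosing is into flood water kept 1.5–3 cm over the soil, at about 0.0313–0.500 kg/ha in aqueous/acetone 50/50 v/v, on 3–5 cm weeds and 1.5–2.5-leaf rice seedlings.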
# [5] = system: ZEAMX (Corn, Field); assay: Postemergence herbicidal evaluation; type: in vivo, Zea mays
# Outline: (§4)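 Seedlings grown about two weeks were sprayed at 40 psi with compound dispersed in 50/50 acetone/water plus 0.5% TWEEN 20, at about 0.0156 to 0.500 kg/ha. Plants were kept in the greenhouse and scored 4–5 weeks later on a 0–9 visual scale against untreated controls.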
# [6] = system: IPOHE (Morningglory, Ivyleaf); assay: Preemergence herbicidal evaluation; type: in vivo, Ipomoea hederacea; conditions: rated 4-5 weeks after treatment
# Outline: as §2
# [7] = system: CYPSE (Flatsedge); assay: Postemergence weed control under flooded paddy conditions; type: in vivo, Cyperus serotinus; conditions: postemergence weeds
# Outline: as §3
# [8] = system: TRZAWR (Wheat, Winter, cv Riband); assay: Preemergence herbicidal evaluation; type: in vivo, Triticum aestivum; conditions: rated 4-5 weeks after treatment
# Outline: as §2
# [9] = system: GALAP (Galium); assay: Postemergence herbicidal evaluation; type: in vivo, Galium aparine
# Outline: as §4
# [10] = system: CASOB (Sicklepod); assay: Postemergence herbicidal evaluation; type: in vivo, Cassia obtusifolia
# Outline: as §4
# [11] = system: CHEAL (Lambsquarters, Common); assay: Preemergence herbicidal evaluation; type: in vivo, Chenopodium album; conditions: rated 4-5 weeks after treatment
# Outline: as §2
# [12] = system: AMBEL (Ragweed, Common); assay: Preemergence herbicidal evaluation; type: in vivo, Ambrosia artemisifolia; conditions: rated 4-5 weeks after treatment
# Outline: as §2
# [13] = system: ECHORC (Watergrass (Calif.)); assay: Preemergence weed control under flooded paddy conditions; type: in vivo, Echinochloa oryzoides; conditions: rated 3-4 weeks after treatment
# Outline: as §1
# [14] = system: ZEAMX (Corn, Field); assay: Preemergence herbicidal evaluation; type: in vivo, Zea mays; conditions: rated 4-5 weeks after treatment
# Outline: as §2
# [15] = Rate 0.0625 kg/ha, rated 3 to 4 weeks after treatment
# [16] = rate 0.1250 kg/ha, 3-4 weeks after treatment
# [17] = rate 0.2500 kg/ha, 3-4 weeks after treatment
compound,measurement,setting,value
"C#CCOC(=O)CC1SC(=Nc2cc(-n3c(=O)cc(C(F)(F)F)n(C)c3=O)c(F)cc2Cl)N(CC(=O)OCC)C1=O (centres unmarked) [Compound 59, 2-{{2-Chloro-5-[3,6-dihydro-3-methyl-2,6-dioxo-4-(trifluoromethyl)-1(2H)-pyrimidinyl]-4-fluorophenyl}imino}-4-oxo-3,5-thiazolidinediacetic acid, 3-ethyl (2-propynyl) ester]",CYPIR herbicidal effect rating,[1]; 0.0625 kg/ha,0.0
same,CYPIR herbicidal effect rating,[1]; 0.1250 kg/ha,0.0
same,CYPIR herbicidal effect rating,[1]; 0.2500 kg/ha,9.0
same,CYPSE herbicidal effect rating,[2]; 0.0625 kg/ha,0.0
same,CYPSE herbicidal effect rating,[2]; 0.1250 kg/ha,0.0
same,CYPSE herbicidal effect rating,[2]; 0.2500 kg/ha,7.0
same,Preemergence herbicidal rating ORYSAT,[3]; rate 0.0156 kg/ha,0.0
same,Preemergence herbicidal rating ORYSAT,[3]; rate 0.0313 kg/ha,0.0
same,Preemergence herbicidal rating ORYSAT,[3]; rate 0.0625 kg/ha,0.5
same,Preemergence herbicidal rating ORYSAT,[3]; rate 0.1250 kg/ha,2.5
same,Preemergence herbicidal rating ORYSAT,[3]; rate 0.2500 kg/ha,3.5
same,Preemergence herbicidal rating ORYSAT,[3]; rate 0.5000 kg/ha,7.0
same,Herbicidal rating ECHORC,[4]; [15],4.0
same,Herbicidal rating ECHORC,[4]; [16],5.0
same,Herbicidal rating ECHORC,[4]; [17],7.0
same,Postemergence herbicidal rating ZEAMX,[5]; Rate 0.0158 kg/ha,7.5
same,Postemergence herbicidal rating ZEAMX,[5]; Rate 0.0315 kg/ha,8.0
same,Postemergence herbicidal rating ZEAMX,[5]; Rate 0.0630 kg/ha,8.5
same,Preemergence herbicidal rating IPOHE,[6]; rate 0.0156 kg/ha,1.0
same,Preemergence herbicidal rating IPOHE,[6]; rate 0.0313 kg/ha,4.0
same,Preemergence herbicidal rating IPOHE,[6]; rate 0.0625 kg/ha,8.5
same,Preemergence herbicidal rating IPOHE,[6]; rate 0.1250 kg/ha,9.0
same,Preemergence herbicidal rating IPOHE,[6]; rate 0.2500 kg/ha,9.0
same,Preemergence herbicidal rating IPOHE,[6]; rate 0.5000 kg/ha,9.0
same,Herbicidal rating CYPSE,[7]; [15],0.0
same,Herbicidal rating CYPSE,[7]; [16],0.0
same,Herbicidal rating CYPSE,[7]; [17],7.0
same,Preemergence herbicidal rating TRZAWR,[8]; rate 0.0156 kg/ha,0.0
same,Preemergence herbicidal rating TRZAWR,[8]; rate 0.0313 kg/ha,0.0
same,Preemergence herbicidal rating TRZAWR,[8]; rate 0.0625 kg/ha,0.0
same,Preemergence herbicidal rating TRZAWR,[8]; rate 0.1250 kg/ha,2.0
same,Preemergence herbicidal rating TRZAWR,[8]; rate 0.2500 kg/ha,2.0
same,Postemergence herbicidal rating GALAP,[9]; Rate 0.0158 kg/ha,6.0
same,Postemergence herbicidal rating GALAP,[9]; Rate 0.0315 kg/ha,6.0
same,Postemergence herbicidal rating GALAP,[9]; Rate 0.0630 kg/ha,9.0
same,Postemergence herbicidal rating CASOB,[10]; Rate 0.0158 kg/ha,3.0
same,Postemergence herbicidal rating CASOB,[10]; Rate 0.0315 kg/ha,9.0
same,Postemergence herbicidal rating CASOB,[10]; Rate 0.0630 kg/ha,9.0
same,Preemergence herbicidal rating CHEAL,[11]; rate 0.0156 kg/ha,9.0
same,Preemergence herbicidal rating CHEAL,[11]; rate 0.0313 kg/ha,9.0
same,Preemergence herbicidal rating CHEAL,[11]; rate 0.0625 kg/ha,9.0
same,Preemergence herbicidal rating CHEAL,[11]; rate 0.1250 kg/ha,9.0
same,Preemergence herbicidal rating CHEAL,[11]; rate 0.2500 kg/ha,9.0
same,Preemergence herbicidal rating CHEAL,[11]; rate 0.5000 kg/ha,9.0
same,Preemergence herbicidal rating AMBEL,[12]; rate 0.0156 kg/ha,2.0
same,Preemergence herbicidal rating AMBEL,[12]; rate 0.0313 kg/ha,3.5
same,Preemergence herbicidal rating AMBEL,[12]; rate 0.0625 kg/ha,6.5
same,Preemergence herbicidal rating AMBEL,[12]; rate 0.1250 kg/ha,9.0
same,Preemergence herbicidal rating AMBEL,[12]; rate 0.2500 kg/ha,9.0
same,Preemergence herbicidal rating AMBEL,[12]; rate 0.5000 kg/ha,9.0
same,ECHORC herbicidal effect rating,[13]; 0.0625 kg/ha,4.0
same,ECHORC herbicidal effect rating,[13]; 0.1250 kg/ha,5.0
same,ECHORC herbicidal effect rating,[13]; 0.2500 kg/ha,7.0
same,Preemergence herbicidal rating ZEAMX,[14]; rate 0.0156 kg/ha,1.0
same,Preemergence herbicidal rating ZEAMX,[14]; rate 0.0313 kg/ha,0.5
same,Preemergence herbicidal rating ZEAMX,[14]; rate 0.0625 kg/ha,1.5
same,Preemergence herbicidal rating ZEAMX,[14]; rate 0.1250 kg/ha,3.0
same,Preemergence herbicidal rating ZEAMX,[14]; rate 0.2500 kg/ha,3.5
same,Preemergence herbicidal rating ZEAMX,[14]; rate 0.5000 kg/ha,6.0
